{"source": "patent US20220347299A1", "about": "“FLUORESCENT SYSTEMS FOR BIOLOGICAL IMAGING AND USES THEREOF” (LIGHTOX LIMITED, priority 2019, published 2022)", "key": {"[1]": {"tested_on": "Mycobacterium smegmatis", "assay": "Overnight growth curve (OD 600 nm) cytotoxicity assay, M. smegmatis", "assay_type": "cell-based", "description": "A sample of M. smegmatis was taken from a plate culture and inoculated into Middlebrook 7H9 broth containing an added Middlebrook ADC growth supplement to culture overnight at 37° C. for approximately 16 hours.\nSamples were incubated in darkness at room temperature for approximately 2 hrs. A black clear bottom Costar™-96 well plate was then filled, with 200 μl of sample in each well Cells were irradiated for 5 minutes at approximately 15 mW/cm^2. The cytotoxicity of the compounds without irradiation was also assessed.\nThe 96 well plate was put into the plate reader and set up to run a growth curve protocol using the following parameters: • Incubation temperature: 37° C. • OD read wavelength 600 nm • 250 cycles, readings every 5 rains • Shaking for 5 s pre-reading\nThis was left to run overnight to obtain kinetic growth curves based on optical density readings."}, "[2]": {"tested_on": "Bacillus subtilis", "assay": "Overnight growth curve (OD 600 nm) cytotoxicity assay, B. subtilis", "assay_type": "cell-based", "description": "A sample of B. subtilis was taken from a plate culture and inoculated into Luria Broth to culture overnight at 37° C. for approximately 16 hours. [table] Samples were incubated in darkness at room temperature for approximately 2 hrs. A black clear bottom Costar™-96 well plate was then filled, with 200 μl of sample in each well Cells were irradiated for 5 minutes at approximately 15 mW/cm^2. The cytotoxicity of the compounds without irradiation was also assessed. The 96 well plate was put into the plate reader and set up to run a growth curve protocol using the following parameters: • Incubation temperature: 37° C. • OD read wavelength 600 nm • 250 cycles, readings every 5 rains • Shaking for 5 s pre-reading This was left to run overnight to obtain kinetic growth curves based on optical density readings."}, "[3]": {"tested_on": "black-grass cells", "assay": "Cytotoxicity assay (FDA/PI) in black-grass cell suspension culture", "assay_type": "cell-based", "description": "5 mL of black-grass cell suspension culture was treated with 0.1, 1, 5, and 10 μM of compound numbers 7, 14, 12 and 15 for 1 hour at room temperature. Cells treated with 0.1% DMSO were used as a control. Cells were irradiated (˜365 nm) for 5 minutes before being incubated at 25° C., 150 rpm for 24 hours. In addition, the cytotoxicity of the compounds without irradiation was also assessed. Cell viability of five biological replicates for each concentration were determined via fluorescence assay (FDA/PI) assay. Percentage of cell viability was calculated using following formulation:\n% viability={live cells (FDA)/(live cells+dead cells)}×100\nThe statistical analysis of percentage of cell viability was performed through one-way analysis of variance (ANOVA) followed by Tukey HSD posthoc test using SPSS 23 (IBM, Chicago, Ill., USA)."}, "[4]": {"tested_on": "Bacillus subtilis", "assay": "Baclight staining (propidium iodide / Syto 9), widefield imaging, B. subtilis", "assay_type": "cell-based", "details": "1 μM, 405 nm, 5 min", "description": "Samples prepared according to Table 9 were treated with compounds by diluting 10 mM of stock solution in media to make a 100 μM concentration. This solution was then further diluted 1:10 and 1:100 in media to make 10 μM and 1 μM media solutions containing the compound. 50 μl of cell culture were then added to the 100 μM, 10 μM and 1 μM compound-containing media preparations. Following the treatment outlined in Table 9, each of the three bacterial strains were stained using a Baclight™ staining kit containing separate solutions of Syto™ 9 and Propidium Iodide. One extra sample treated with 0.1 μM of each compound was also included in this assay. M. smegmatis, S. epidermis and B. subtilis were stained with propidium iodide to show non-viable cells and with Syto 9 to show all cells. The following staining procedure was used: • 1. 1 ml of each sample was eluted into a well of a 12-well plate; • 2. One half of the 12 well plate was irradiated at approximately 15 mW/cm^2 for 5 mins; • 3. The content of each well was eluted into separate Eppendorfs and centrifuged at 10,000 r.p.m for 3 rains to form a culture pellet; • 4. Media was then removed, and each pellet resuspended in 200 μl of 1× PBS before being centrifuged at 10,000 r.p.m. for 3 mins. • 5. A preparation of Baclight™-staining solution was made using 1 ml 1× PBS, 3 μl propidium iodide and 3 μl Syto™ 9; • 6. […]"}, "[5]": {"assay": "Peak absorption and fluorescence emission wavelengths in solvents", "assay_type": "physicochemical", "details": "for λem(max)/nm: 100 nM, excitation at peak of absorption; for λabs(max)/nm: 10 μM", "description": "Peak absorption and fluorescence emission wavelengths of compounds 6, 7, 12, 13, 14, 15, 19, 23, 27, 30 and 34 were measured in a variety of solvents, and the results are shown in Table 1. Absorption measurements were recorded at a concentration of 10 μM, and emission measurements were recorded at a concentration of 100 nM. Emission spectra were recorded with excitation at the peak of absorption (S0→S1)."}}, "data": [{"smiles": "COC(=O)/C=C/c1ccc(C#Cc2ccc(N(C)CCN)cc2)cc1", "note": "[Compound 12, methyl (2E)-3-[4-(2-{4-[(2-aminoethyl)(methyl)amino]phenyl}ethynyl)phenyl]prop-2-enoate]", "values": [{"measurement": "growth of M. smegmatis, radiated samples", "setting": "[1]; 100 μM, 405 nm, 5 min, approximately 15 mW/cm^2", "value": "begin to indicate some cytotoxicity"}, {"measurement": "growth of M. smegmatis, no photoactivation", "setting": "[1]; 1-100 μM, not irradiated", "value": "no significant difference between the treated and untreated controls"}, {"measurement": "growth of B. subtilis, non-irradiated", "setting": "[2]; 1 μM, not irradiated", "value": "slightly less growth than the untreated samples as well as an increased lag time"}, {"measurement": "growth of B. subtilis", "setting": "[2]; 100 μM and 10 μM, with or without photoactivation", "value": "no growth is observed regardless of any photoactivation"}, {"measurement": "cytotoxicity in B. subtilis compared with compound 6", "setting": "[2]; 10 and 1 μM", "value": "more cytotoxicity"}, {"measurement": "black-grass cell viability", "setting": "[3]; 5 μM and 10 μM, after ~365 nm irradiation", "value": "significantly reduced"}, {"measurement": "dependence of cytotoxic effect on irradiation", "setting": "[3]; black-grass cells, ~365 nm, 5 minutes", "value": "only observed after irradiation"}, {"measurement": "proportion of non-viable (red) cells following irradiation compared to non-irradiated sample", "setting": "[4]", "value": "the proportion of non-viable (red) cells is increased"}, {"measurement": "λem(max)/nm", "setting": "[5]; DCM", "value": 551, "unit": "nm"}, {"measurement": "λabs(max)/nm", "setting": "[5]; DCM", "value": 371, "unit": "nm"}, {"measurement": "λem(max)/nm", "setting": "[5]; Toluene", "value": 482, "unit": "nm"}, {"measurement": "λabs(max)/nm", "setting": "[5]; Toluene", "value": 380, "unit": "nm"}]}]}
